According to BindingDB's records for doi:10.1016/s0968-0896(99)00101-7 (Otsuka Pharmaceutical Co., Ltd, 1999):

What was measured:
[1] = target: Vasopressin V2 receptor (Homo sapiens, UniProt P30518); test: Radioligand Binding Assay to HeLa Cells; conditions: pH 7.4; 4 °C
Protocol: (§1) After reaching confluence in 12-well or 24-well dishes, the cells were washed twice with ice-cold PBS and incubated for 2 hr with [3H]-AVP at 4 deg C. For the competition experiment, test compounds were dissolved in dimethyl sulfoxide, diluted with DMEM medium and added into the wells at several appropriate concentrations. […] The protein content of the lysed cells was determined by the method of Bradford.

[2] = target: Vasopressin V1a receptor (Homo sapiens, UniProt P37288); test: Radioligand Binding Assay to HeLa Cells
Protocol: as §1

Vasopressin V1a receptor, sequence (P37288 whole entry): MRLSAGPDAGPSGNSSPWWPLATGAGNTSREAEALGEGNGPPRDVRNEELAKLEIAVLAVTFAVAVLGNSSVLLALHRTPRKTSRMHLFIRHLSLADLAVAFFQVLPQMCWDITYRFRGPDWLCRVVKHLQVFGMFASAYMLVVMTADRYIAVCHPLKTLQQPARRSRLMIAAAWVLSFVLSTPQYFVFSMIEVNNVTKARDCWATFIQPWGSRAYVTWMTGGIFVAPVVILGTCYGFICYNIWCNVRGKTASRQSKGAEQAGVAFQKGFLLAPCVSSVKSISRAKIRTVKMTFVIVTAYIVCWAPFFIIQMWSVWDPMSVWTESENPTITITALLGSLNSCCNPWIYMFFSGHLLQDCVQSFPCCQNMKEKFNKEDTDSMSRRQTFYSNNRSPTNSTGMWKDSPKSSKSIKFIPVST
Vasopressin V2 receptor, sequence (P30518 whole entry): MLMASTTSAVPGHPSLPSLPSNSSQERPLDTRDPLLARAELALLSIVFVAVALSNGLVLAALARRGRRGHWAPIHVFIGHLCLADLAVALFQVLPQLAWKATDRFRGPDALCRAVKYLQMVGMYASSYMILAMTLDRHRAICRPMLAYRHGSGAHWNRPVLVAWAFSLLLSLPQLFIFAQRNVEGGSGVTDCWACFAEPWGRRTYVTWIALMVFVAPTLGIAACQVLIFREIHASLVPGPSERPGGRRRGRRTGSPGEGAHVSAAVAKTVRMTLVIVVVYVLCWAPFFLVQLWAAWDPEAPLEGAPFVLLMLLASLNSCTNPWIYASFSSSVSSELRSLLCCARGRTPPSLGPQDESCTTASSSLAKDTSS

Structure (SMILES) | IC50 [1] | IC50 ([2]; pH 7.4, 4 °C) | IC50 [2]
Cc1ccccc1C(=O)Nc1ccc(C(=O)N2CCCC(O)c3cc(Cl)ccc32)c(Cl)c1 (stereo not drawn) [benzazepine derivative, 30] | 8 nM | 290 nM | 
C=CCOC1CCCN(C(=O)c2ccc(NC(=O)c3ccccc3C)cc2)c2ccc(Cl)cc21 (stereo not drawn) [benzazepine derivative, 22] | 9 nM | 53 nM | 
COc1cc(NC(=O)c2ccccc2C)ccc1C(=O)N1CCCC(O)c2cc(Cl)ccc21 (stereo not drawn) [benzazepine derivative, 33] | 13 nM |  | 39 nM
Cc1ccccc1C(=O)Nc1ccc(C(=O)N2CCCC(N(C)C)c3ccc(Cl)cc32)cc1 (stereo not drawn) [benzazepine derivative, 15] | 63 nM | 1200 nM | 
C=CCNC1CCCN(C(=O)c2ccc(NC(=O)c3ccccc3C)cc2)c2ccc(Cl)cc21 (stereo not drawn) [benzazepine derivative, 18] | 18 nM | 45 nM | 
Cc1ccccc1C(=O)Nc1ccc(C(=O)N2CCCC(O)c3cc(Cl)ccc32)cc1Cl (stereo not drawn) [benzazepine derivative, 31] | 28 nM | 31 nM | 
Cc1ccccc1C(=O)Nc1ccc(C(=O)N2CCCC(N(C)C)c3c(Cl)cccc32)cc1 (stereo not drawn) [benzazepine derivative, 17] | 190 nM | 1700 nM | 
COC1CCCN(C(=O)c2ccc(NC(=O)c3ccccc3C)cc2)c2ccc(Cl)cc21 (stereo not drawn) [benzazepine derivative, 21] | 5 nM | 34 nM | 
CNC1CCCN(C(=O)c2ccc(NC(=O)c3ccccc3C)cc2)c2ccc(Cl)cc21 (stereo not drawn) [benzazepine derivative, 13a] | 7 nM | 64 nM | 
C=CCN(C)C1CCCN(C(=O)c2ccc(NC(=O)c3ccccc3C)cc2)c2ccc(Cl)cc21 (stereo not drawn) [benzazepine derivative, 19] | 97 nM | 350 nM | 
Cc1ccccc1C(=O)Nc1ccc(C(=O)N2CCCC(N(C)C)c3cc(Cl)ccc32)cc1 (stereo not drawn) [benzazepine derivative, 14] | 25 nM | 190 nM | 
Cc1ccccc1C(=O)Nc1ccc(C(=O)N2CCCC(O)c3cc(Cl)ccc32)cc1 (stereo not drawn) [benzazepine derivative, 20] | 3 nM | 17 nM | 
Cc1ccccc1C(=O)Nc1ccc(C(=O)N2CCCC(N(C)C)c3cccc(Cl)c32)cc1 (stereo not drawn) [benzazepine derivative, 16] | 140 nM | 540 nM | 
COc1cc(C(=O)N2CCCC(O)c3cc(Cl)ccc32)ccc1NC(=O)c1ccccc1C (stereo not drawn) [benzazepine derivative, 34] | 5 nM |  | 7 nM
